# Measurements published in patent US12031087B2, “Oxygenated solvents for improved production of oil and gas” (Board of Regents, The University of Texas System, priority 2019, dated 2024).
# Like-named read-outs stand apart in the source and are kept apart here.
# Experiments:
# [1] = 347 K
# From the text: Contact Angle Experiments. […] The procedure largely follows that of Example 1, but as explained below, a change to the previous procedure was necessary because it was not possible to continuously monitor oil droplets on the calcite surface with the surfactant solution.
# Before the contact angle measurement, the chemical solution and RB were separately degasified at elevated temperatures. Then, oil-aged calcite pieces were placed in RB. Oil droplets were placed on the bottom surface of a calcite piece in the RB glass chamber.
# The calcite piece was continued to be placed in the surfactant solution and taken out after 1 day. Then, the calcite piece was rinsed with RB and placed in RB with no surfactant. […] A photo of the oil droplet was taken then. The contact angles of both sides of each oil droplet were measured using onscreen protractor software. An average contact angle and standard deviation were then calculated.
# [2] = From the text: Experimental Procedure for Flooding/Soaking Experiments. […] This section describes the preparation of the tight cores and the flooding/soaking experiments. Properties of the tight carbonate cores and the injection scheme for two flooding/soaking experiments are also summarized in this section.
# Rocherons carbonate cores (Kocurek Industries Inc.) were used in this research. […] In this research, 11 core pieces were saturated only by crude oil and 5 core pieces were saturated by both crude oil and reservoir brine at room temperature. To saturate core pieces by crude oil, they were placed in an accumulator, which was evacuated for at least 24 hours. […] The weights of the core pieces were measured before and after saturating by crude oil to quantify the oil volume in the cores. The volume so determined was assumed to be the accessible pore volume (PV) of the core. […] It consists of an accumulator for reservoir brine, a pump, a Hassler-type core-holder, a hydraulic manual pump to maintain the overburden pressure and cylinders. Before brine injection, the inlet tubing of the coreholder was evacuated for 10 seconds to prevent injecting air into the core. The core was flooded by brine until the injected brine volume exceeded the accessible pore volume. […] The weights of the core pieces were measured after they were re-saturated by the crude oil. The brine and oil volumes in the core pieces were calculated by the following equations. […] Then, oil and brine saturations in each core piece can be calculated. Table 19 presents the properties of the core pieces, including the length of each core piece, accessible pore volume, and oil and brine saturations. Core pieces #1-#5 in Table 19 were saturated by both brine and oil.
# An artificial fracture was created along the longitudinal axis using an electric saw for each core piece. Teflon spacers with 0.001 m in width were placed along two edges of the fracture to maintain a fracture aperture. Then, the core halves were carefully put together with the Teflon spacers placed in the fracture, wrapped with a Teflon tube and placed inside a horizontally-oriented core holder, with the fracture vertically-oriented. Teflon spacer was not placed in the space between core pieces. […] When assembling the core pieces for Case 1, core pieces were put so that oil saturation changes monotonically. Qualitatively, the longitudinal fracture served as a propped fracture and the fractures normal to it served as unpropped fractures in terms of hydraulic paths.
# FIG. 59 presents a schematic of the experimental set-up for the flooding/soaking experiment. […] Then, the system was evacuated for 10 seconds to remove any air trapped in the fractures. After that, the core was flooded with crude oil to measure the fracture permeability by using the flow rate of 500 cm^3/hr under certain overburden pressure. Table 20 provides the pressure drops along the cores at a certain flow rate and the overburden pressures used.
# During flooding/soaking experiments, the RB was injected at 6 ml/hr until no more oil production was observed. Then, the surfactant solution was injected at 6 ml/hr to fill the volume from the inlet of the coreholder until the outlet line of the coreholder, which was followed by a 10-hour soaking period. After that, the surfactant solution was injected at 6 ml/hr to chase the fluid in the system and to recover the produced oil during the first soaking period. The system was then shut-in for a second 10-hour soaking period. RB was then injected at 6 ml/hr to chase the fluid in the system and to recover the produced oil during the second soaking period. Finally, the system was shut-in for a 12-hour soaking period, followed by RB injection to chase the fluid in the system until no oil production.
# The effluent was collected in plastic graduating cylinders at room temperature.
# [3] = Coreflooding of fractured cores, vertical (Example 2)
# Experimental: Experimental Procedure for Coreflooding. […] The Indiana limestone cores have the common dimensions with a diameter of 0.0254 m and a length of 0.127 m. The cores were saturated with RB first and then oil, during which the core properties were measured, such as porosity, permeability, and water and oil saturations.
# It includes an accumulator for crude oil, a pump, a Hassler-type core holder, a hydraulic manual pump to maintain the overburden pressure, a differential pressure gauge, cylinders, and an oven. After a core was placed in the core holder, oil was injected into the cores at 100 cm^3/h and 347 K until no water production was observed.
# An artificial fracture was created along the longitudinal axis using an electric saw for each core (FIG. 20). By following the procedure of Mejia, Teflon spacers with 0.001 m in width and 0.127 m in length were placed along two edges of the fracture to maintain a fracture aperture. Then, the core halves were carefully put together with the Teflon spacers in the fracture, wrapped with a Teflon tube, and placed inside a vertically oriented coreholder.
# FIG. 21 provides a schematic of the experimental setup for coreflooding. It consists of accumulators for crude oil, RB, and chemical solution (3-pentanone or surfactant), a pump, a Hassler-type core holder, a hydraulic manual pump to maintain the overburden pressure, a differential pressure gauge, cylinders, and an oven. […] After a fractured core was placed in the coreholder, the oven temperature was increased to reservoir temperature (347 K). Then, the core was flooded with crude oil to remove any gas inside the fracture and measure the fracture permeability using the flow rate of 900 cm^3/h. The overburden pressure was adjusted so that all cores used in this research had similar fracture apertures and fracture permeabilities.
# Fracture permeabilities were calculated. The equation for flow between parallel plates b=(3πdke)^1/3 was used to estimate a fracture aperture, where b is the fracture aperture, d is the core diameter, and ke is the effective oil permeability of the fractured core. […] Af and Am are cross-sectional areas of the fracture and matrix, respectively. kf and km are permeabilities of the fracture and matrix, respectively.
# The initial RB stage was at 6 cm^3/h for 1.5 pore volumes injected (PVI), then at 0.05 cm^3/h for 0.3-0.4 PVI, and at 6 cm^3/h until there was no oil production. After that, a chemical slug (3-pentanone or surfactant) was injected at 0.6 cm^3/h for 1.6 PVI. Finally, the chase RB was injected at 0.6 cm^3/h. […] However, it was terminated after 1.2 PVI of the chase RB for core 1 because of operational constraints.
# The coreflood effluent was collected in plastic graduating cylinders at room temperature. To correct the oil recovery factor for 3-pentanone solubility in oil, the 3-pentanone concentration in recovered oil was measured by the proton nuclear magnetic resonance (H NMR) method for the chemical slug and chase RB flooding periods for core 1.
# [4] = 24 h after immersion in 1.0 wt % surfactant solution
substance,measurement,setting,value
2-ethylhexanol-4 propylene oxide-15 ethylene oxide [2-EH-4PO-15EO],Average contact angle,[1]; [4],47.1 deg
same,"contact angle, left side",[1]; [4],47.5 deg
same,"contact angle, right side",[1]; [4],46.8 deg
same,Average contact angle,[1]; at the initialization,134.1 deg
same,"contact angle, left side",[1]; at the initialization,133.2 deg
same,"contact angle, right side",[1]; at the initialization,135.1 deg
same,total improved oil recovery,[2]; Case 1 (with initial water),76.11 % OOIM
same,Cumulative improved oil recovery factor by surfactant solution,"[2]; Case 1 (with initial water), after the 1st soaking period",0.3348
same,Cumulative improved oil recovery factor by surfactant solution,"[2]; Case 1 (with initial water), after the 2nd soaking period",0.6303
same,Cumulative improved oil recovery factor by surfactant solution,"[2]; Case 1 (with initial water), after the 3rd soaking period",0.7611
same,incremental oil recovery,"[2]; Case 1, after the 1st soaking period",33.48 % OOIM
same,incremental oil recovery,"[2]; Case 1, after the 2nd soaking period",29.55 % OOIM
same,incremental oil recovery,"[2]; Case 1, after the 3rd soaking period",13.09 % OOIM
same,total improved oil recovery,[2]; Case 2 (without initial water),78.42 % OOIM
same,Cumulative improved oil recovery factor by surfactant solution,"[2]; Case 2 (without initial water), after the 1st soaking period",0.3555
same,Cumulative improved oil recovery factor by surfactant solution,"[2]; Case 2 (without initial water), after the 2nd soaking period",0.6647
same,Cumulative improved oil recovery factor by surfactant solution,"[2]; Case 2 (without initial water), after the 3rd soaking period",0.7842
same,incremental oil recovery,"[2]; Case 2, after the 1st soaking period",35.55 % OOIM
same,incremental oil recovery,"[2]; Case 2, after the 2nd soaking period",30.92 % OOIM
same,incremental oil recovery,"[2]; Case 2, after the 3rd soaking period",11.95 % OOIM
same,"incremental oil recovery factor, chemical slug stage","[3]; 1.6 PVI slug after first RB flood, 1.1 wt % 3-pentanone in RB (core 1) or 1.0 wt % 2-EH-4PO-15EO in RB (core 2), 347 K",23.6%
same,"incremental oil recovery factor, chase RB flooding stage","[3]; 7.0 PVI chase RB, core 2, 347 K",23.7%
same,total improved oil recovery,"[3]; chemical slug + chase RB stages (1.2 PVI chase core 1; 7.0 PVI chase core 2), 347 K",47.3%
